Measurements as given in US8598182B2, “Insecticidal pyrimidinyl aryl hyrdrazones” (Dow AgroSciences, LLC., priority 2007, dated 2013).

Legend:
[1] = tested on: Beet Armyworm (Spodoptera exigua); assay: Insecticidal diet-surface test for beet armyworm; type: in vivo; details: second-instar beet armyworm, 50 ug/cm2 on diet surface, 5 days after treatment, dead insects of 8
Protocol: (§1) The compounds identified in Table 1 were prepared using the procedures illustrated in the foregoing examples, and the compounds were tested against beet armyworm and corn earworm as follows:
(§2) Insecticidal Test for Corn Earworm (Helicoverpa zea) and Beet Armyworm (Spodoptera exigua).
(§3) To prepare test solution, the test compound was formulated at 2000 ppm solution as 4 mg/2 mL of 9 acetone:1 tap water. 50 μL of the 2000 ppm (equivalent to 50 ug/cm^2 dose on diet surface area) test solution was pipetted upon the surface of 1 mL of lepidopteran diet (Southland Multi-Species Lepidopteran Diet) contained in each of eight wells per insect species (one well=1 replication). A second-instar corn earworm and beet armyworm was placed upon the treated diet in each well once the solvent had air-dried. Trays containing the treated diet and larvae were covered and then held in a growth chamber at 25° C., 50-55% RH, and 16 hr light:8 hr dark for 5 days. Observation were conducted 5 days after treatment and infestation. The number of dead insects of 8 per species per treatment was then determined and the results are given in Table 1 as percent control at a dose of […].
(§4) Keys to the table: Mass spectral data were obtained using liquid chromatography mass spectroscopy (LC-MS). The masses are detected using electrospray ionization (ESI) and reported as Mol Ion (M+H, M−H); AVG LAPHEG 50 refers to activity against beet army worm (Spodoptera exigua) as defined above; AVG HELIZE 50 refers to activity against corn ear worm (Helicoverpa zea) as described above.

[2] = tested on: Corn Earworm (Helicoverpa zea); assay: Insecticidal diet-surface test for corn earworm; type: in vivo; details: second-instar corn earworm, 50 ug/cm2 on diet surface, 5 days after treatment, dead insects of 8
Protocol: as §1, §2, §3, §4

Row | Compound | LAPHEG 50 (ug/cm2), percent control [1] [%] | HELIZE 50 (ug/cm2), percent control [2] [%]
1 | Fc1ccc(Nc2cc(Cl)nc(N/N=C/c3ccc(OC(F)(F)F)cc3)n2)cc1C(F)(F)F [Compound 1, (6-Chloro-2-{N′-[1-(4-trifluoromethoxyphenyl)-methylidene]-hydrazino}-pyrimidin-4-yl)-(4-fluoro-3-trifluoromethylphenyl)amine] | 100 | 100
2 | CN(c1ccc(OC(F)(F)F)cc1)c1cc(C(F)(F)F)nc(N/N=C/c2ccc(OC(F)(F)F)cc2)n1 [Compound 2, Methyl-(4-trifluoromethoxyphenyl)-(2-{N′-[1-(4-trifluoromethoxy-phenyl)-methylidene]-hydrazino}-6-trifluoromethylpyrimidin-4-yl)amine] | 0 | 50
3 | Fc1ccc(Nc2cc(N/N=C/c3ccc(OC(F)(F)F)cc3)nc(NCc3ccc(Cl)nc3)n2)cc1C(F)(F)F [Compound 3, N-[2-(6-Chloropyridin-3-ylmethyl)]-N-[4-(4-fluoro-3-trifluoromethylphenyl)]-6-{N′-[1-(4-trifluoromethoxyphenyl)-methylidene]-hydrazino}pyrimidine-2,4-diamine] | 100 | 100
4 | Fc1ccc(Nc2ccnc(N/N=C/c3ccc(OC(F)(F)C(F)F)cc3)n2)cc1C(F)(F)F [Compound 4] | 100 | 100
5 | FC(F)C(F)(F)Oc1ccc(/C=N/Nc2nc(Cl)cc(Nc3ccc(OC(F)(F)C(F)F)cc3)n2)cc1 [Compound 5] | 100 | 88
6 | FC(F)C(F)(F)Oc1ccc(Nc2cc(Cl)nc(N/N=C/c3ccc(OC(F)(F)F)cc3)n2)cc1 [Compound 6] | 100 | 100
7 | FC(F)C(F)(F)Oc1ccc(Nc2cc(Cl)nc(N/N=C/c3cccc(OC(F)(F)C(F)F)c3)n2)cc1 [Compound 7] | 88 | 25
8 | Fc1ccc(/C=N/Nc2nc(Cl)cc(Nc3ccc(OC(F)(F)C(F)F)cc3)n2)cc1C(F)(F)F [Compound 8] | 100 | 100
9 | FC(F)C(F)(F)Oc1ccc(Nc2cc(Cl)nc(N/N=C/c3ccc4c(c3)OC(F)(F)O4)n2)cc1 [Compound 9] | 100 | 100
10 | FC(F)C(F)(F)Oc1ccc(Nc2cc(Cl)nc(N/N=C/c3ccc(Cl)cc3)n2)cc1 [Compound 10] | 63 | 88
11 | Fc1ccc(Nc2cc(Cl)nc(N/N=C/c3ccc(Cl)cc3)n2)cc1C(F)(F)F [Compound 11] | 100 | 100
12 | Fc1cnc(N/N=C/c2ccc(Br)cc2)nc1Nc1ccc(OC(F)(F)F)cc1 [Compound 12] | 0 | 100
13 | Fc1cnc(N/N=C/c2ccc(OC(F)(F)F)cc2)nc1Nc1ccc(OC(F)(F)F)cc1 [Compound 13] | 0 | 100
14 | Fc1cnc(N/N=C/c2ccc(OC(F)(F)C(F)F)cc2)nc1Nc1ccc(OC(F)(F)F)cc1 [Compound 14] | 0 | 88
15 | Fc1cnc(N/N=C/c2cccc(OC(F)(F)F)c2)nc1Nc1ccc(OC(F)(F)F)cc1 [Compound 15] | 0 | 75
16 | Fc1cnc(N/N=C/c2ccc(Cl)cc2)nc1Nc1ccc(OC(F)(F)F)cc1 [Compound 16] | 100 | 100
17 | Fc1cc(Nc2ccc(F)c(C(F)(F)F)c2)nc(NN=Cc2ccc(OC(F)(F)F)cc2)n1 [Compound 17] | 100 | 100
18 | Fc1cc(Nc2ccc(F)c(C(F)(F)F)c2)nc(NN=Cc2ccc(OC(F)(F)C(F)F)cc2)n1 [Compound 18] | 100 | 100
